Source: paper PMC11396935, “Exploration of Compounds with 2-Phenylbenzo[d]oxazole Scaffold as Potential Skin-Lightening Agents through Inhibition of Melanin Biosynthesis and Tyrosinase Activity” (Molecules, 2024)
Where two headings read alike, the source gives them in different places.

How the values were obtained:
[1] = DPPH radical scavenging assay; details: 500 μM, 30 min in the dark
Experimental: The DPPH radical scavenging activity was assessed by mixing DPPH solution with compounds 1–15 and incubating them in the dark for 30 min. All test samples were evaluated at 500 μM.
3.14. 2,2′-Diphenyl-1-picrylhydrazyl (DPPH) Radical Scavenging Assay
As previously reported, the ability of compounds 1–15 to remove DPPH radicals was evaluated. A 0.2 mM methanolic DPPH solution was mixed with a 5 mM L-ascorbic acid aqueous solution or 5 mM DMSO solution of 1–15 at a ratio of […] (v/v, 180 μL:20 μL) in each well of a 96-well microplate. After incubating the microplate in the dark for 30 min, the optical density of each well was measured at 517 nm using an ELISA reader. DPPH scavenging activity (%) = (OD[control] − OD[sample]) × 100/OD[control].

mushroom tyrosinase = target: T1, mushroom tyrosinase (Agaricus bisporus, UniProt C7FF04); assay: Mushroom tyrosinase activity inhibition assay (L-tyrosine or L-dopa as substrate); assay type: biochemical; details: mushroom tyrosinase, 37 °C, mean ± SEM of triplicates
T1 construct: purchased Sigma-Aldrich (St. Louis, MO, USA)
T1 sequence (C7FF04 1-392 limits assumed): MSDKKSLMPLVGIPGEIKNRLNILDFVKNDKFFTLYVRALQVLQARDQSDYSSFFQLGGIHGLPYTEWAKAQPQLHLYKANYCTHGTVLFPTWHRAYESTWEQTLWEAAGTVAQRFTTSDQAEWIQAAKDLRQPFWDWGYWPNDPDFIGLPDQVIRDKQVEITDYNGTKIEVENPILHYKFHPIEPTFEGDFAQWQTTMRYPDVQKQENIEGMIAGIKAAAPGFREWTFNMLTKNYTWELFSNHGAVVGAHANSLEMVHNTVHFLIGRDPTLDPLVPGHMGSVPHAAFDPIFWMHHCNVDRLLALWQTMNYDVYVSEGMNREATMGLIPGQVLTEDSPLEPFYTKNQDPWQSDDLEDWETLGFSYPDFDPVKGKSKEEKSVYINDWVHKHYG
Experimental: 3.3. Tyrosinase Activity Assay Using Mushroom Tyrosinase
The tyrosinase inhibitory activity of the 2-phenylbenzoxazoles was evaluated using a mushroom tyrosinase activity assay, following a previously described method. An aqueous substrate mixture, consisting of phosphate buffer (pH 6.5; 17.2 mM) and L-tyrosine or L-dopa (345 μM), was prepared. A 96-well plate containing the test sample in dimethyl sulfoxide (DMSO) solution (10 μL), aqueous mushroom tyrosinase solution (20 μL; 200 units), and aqueous substrate mixture (170 μL) in each well was incubated at 37 °C for 15 min for L-dopa and 30 min for L-tyrosine, respectively.

[2] = ABTS radical cation scavenging assay; details: 100 μM
Experimental: For ABTS^+• scavenging experiments, ABTS^+• was generated by oxidizing ABTS using potassium persulfate. All test samples (Trolox [TR; positive material] and 1–15) were used at a final concentration of 100 μM. […] Both compounds share a common catechol structure. […] Similar results were obtained in the DPPH radical scavenging experiment. […] Compounds 4, 9, and 14, bearing a 4-hydroxy-3-methoxyphenyl, scavenged ABTS^+• moderately (23–51%).
3.15. 2,2′-Azino-bis(3-ethylbenzothiazoline-6-sulfonic Acid) (ABTS) Radical Cation Scavenging Assay
The effect of the 2-phenylbenzoxazole compounds 1–15 on radical scavenging was assessed using an ABTS assay, as previously reported. An ABTS aqueous solution (7 mM) was mixed with a K2S2O8 aqueous solution (2.45 mM) in equal volumes (each 20 mL) and incubated in the dark for 20 h at 25 °C to generate ABTS^+•. The ABTS^+• solution was then diluted with pure EtOH to adjust the absorbance of the solution to 0.7 ± 0.02 at 730 nm. The test samples (1–15 and Trolox [positive control]) were dissolved in a co-solvent of EtOH and DMSO (9:1, v/v) to make a 1 mM solution. The diluted ABTS^+• solution was mixed with the test sample solution at a volume ratio of 9:1 (90 μL:10 μL) and the mixture was stored for 2 min at 20 °C in the dark. The optical density was measured at 730 nm using an ELISA reader at 1 min intervals for 10 min. All test samples were used at a final concentration of 100 µM.
ABTS^+• radical scavenging activity (%) = [(ODcon − ODsam)/ODcon] × 100, where ODsam and ODcon represent the absorbances of the test sample and the control, respectively.

[3] = ROS scavenging assay (SIN-1/DCFH); details: 40 μM; SIN-1 10 μM; 30 min
Experimental: For ROS scavenging experiments, test samples (1–15 and Trolox [positive control]; 40 μM) containing 3-morpholinosydnonimine (SIN-1; 10 μM) were mixed with a 2′,7′-dichlorodihydrofluorescein (DCFH) solution. After 30 min, the ROS scavenging activity of the test samples was assessed.
3.16. Reactive Oxygen Species (ROS) Scavenging Assay
The ability of compounds 1–15 to remove ROS was assayed as previously reported. […] A 3-morpholinosydnonimine (SIN-1) solution (10 μL, 250 μM) and phosphate buffer (180 μL) were mixed with a test sample (1–15; 10 μL, 1 mM) in DMSO solution or Trolox (10 μL, 1 mM; positive control) in each well of a 96-well black plate and left in the dark 25 °C for 5 min. The SIN-1-test sample mixture was then combined with the generated DCFH solution (50 μL). Fluorescence was measured in 5 min intervals for 30 min at 530 nm using a microplate reader (Berthold Advances GmbH & Co., Bad Wildbad, Germany) with excitation at 485 nm.

[4] = system: B16F10 tyrosinase in situ; details: compounds 1, 2, 5 μM; kojic acid 5 μM; α-MSH + IBMX 72 h; excess L-dopa
Experimental: To evaluate the effect of the compounds on in situ tyrosinase activity, an experiment using B16F10 cells was performed as previously described [34, 35]. […] Excess L-dopa was added to increase their melanin production prior to the acquisition of cell images.
In Situ Tyrosinase Activity Assay Using B16F10 Cells and L-dopa
In situ tyrosinase activity was measured in B16F10 cells using L-dopa, as reported previously [34]. […] The cells were processed as follows: (1) fixing with 4% paraformaldehyde for 40 min, (2) washing with PBS, and (3) permeabilizing with 0.1% Triton X-100 for 2 min. After washing with PBS, the cells were stained with L-dopa (2 mM; 500 μL) at 37 °C for 2 h. Stained images were collected using a camera connected to a microscope (Motic, Hong Kong).

zebrafish larvae [5] = assay: In vivo depigmentation experiment using zebrafish embryos; details: kojic acid 20 mM; compound 8 0.025 mM; compound 13 0.025 and 0.05 mM; 76 hpf
Experimental: Zebrafish embryos were used in this study. […] The zebrafish embryos were obtained through natural mating in our laboratory. The chorion of the zebrafish embryos was removed 24 h post-fertilization (hpf).
In Vivo Depigmentation Experiment Using Zebrafish Embryos
A depigmentation experiment was performed using zebrafish embryos, as previously described [38, 49, 50]. Wild-type zebrafish (Danio rerio) were maintained in a fish tank at 28 °C and fed with dried brine shrimp (Artemia salina, San Francisco Bay Brand, San Francisco, CA, USA) three times daily. The zebrafish embryos were obtained through natural mating in mating cages. The obtained zebrafish embryos were transferred to a 90 mm culture dish containing 200 μL of E3-methylene blue (MB) solution, consisting of 0.001% MB, 0.17 mM KCl, 0.33 mM CaCl2, 0.33 mM MgSO4, and 5 mM NaCl, and incubated in an incubator set at 28 °C. At 24 h post-fertilization (hpf), the zebrafish embryos were dechorionated using pronase (Sigma-Aldrich, St. Louis, MO, USA). […] The 48-well plates were incubated in an incubator set at 28 °C for 48 h. At 76 hpf, the zebrafish larvae were mounted on a 1% methylcellulose block after anesthesia with tricaine methanesulfonate (Thermo Fisher Scientific, Waltham, MA, USA), and photographs of the zebrafish larvae were obtained using a SMZ745T stereoscopic microscope (Nikon, Tokyo, Japan). The pigmented areas of the zebrafish larvae were determined using the CS analyzer 3.0 image analysis software (ATTO, Tokyo, Japan).

[6] = system: tyrosinase activity in zebrafish larvae; assay: Tyrosinase activity in zebrafish larvae; assay type: in vivo, zebrafish (Danio rerio); details: compound 8 0.025 mM; kojic acid 20 mM; treated 28 hpf, read 74 hpf
Experimental: (§1) . Zebrafish embryos obtained by natural mating were dechorionated at 24 hpf and treated with compound 8 (0.025 mM) or kojic acid (20 mM) at 28 hpf. After 46 h, the melanin content and tyrosinase activity were determined.
(§2) 3.13. Measurement of Melanin Content and Tyrosinase Activity in Zebrafish Larvae
(§3) The effects of the 2-phenylbenzo[d]oxazole compound 8 on the melanin content and tyrosinase activity in the zebrafish larvae were assessed using a previously defined procedure with minor modifications. To quantify the melanin content in the zebrafish larvae, zebrafish embryos were obtained through natural mating and operated in a similar manner to the in vivo depigmentation experiment (25 zebrafish embryos per well in a 24-well plate; dechorionation at 24 hpf; test sample treatment (8 [0.025 mM] and kojic acid [20 mM; positive control]) at 28 hpf). Melanin quantification and tyrosinase activity were quantified at 74 hpf. For melanin quantification, the zebrafish larvae were lysed in RIPA buffer (Biosesang, Gyeonggi-do, Korea) and homogenized using a sonicator. […] The absorbance was measured at 405 nm using a microplate reader. For the tyrosinase activity measurement, the supernatants were transferred to new Eppendorf tubes and the protein was quantified using a Pierce BCA protein assay kit, with the absorbance being measured at 570 nm using a microplate reader. […]

zebrafish larvae [7] = assay: Melanin content in zebrafish larvae; assay type: in vivo, zebrafish (Danio rerio); details: compound 8 0.025 mM; kojic acid 20 mM; treated 28 hpf, read 74 hpf
Experimental: as §1, §2, §3

[8] = substrate L-dopa, 15 min, read-out: IC50 Values, L-Dopa
[9] = substrate L-tyrosine, 30 min, read-out: IC50 Values, L-Tyrosine

SMILES	IC50 (mushroom tyrosinase; [8])	IC50 (mushroom tyrosinase; [9])	ABTS+• scavenging activity (% inhibition) [2]	further results
O=C1O[C@H]([C@@H](O)CO)C(O)=C1O [L-ascorbic acid, reference compound]	–	–	–	DPPH radical scavenging activity [1]: 96%
Cc1c(C)c2c(c(C)c1O)CCC(C)(C(=O)O)O2 (centres unmarked) [Trolox, reference compound]	–	–	99%	ROS scavenging activity [3]: most potent ROS scavenging activity
O=c1cc(CO)occ1O [kojic acid, Kojic acid, reference compound]	–	–	–	melanin formation, in situ tyrosinase activity in B16F10 cells [4]: markedly decreased melanin formation; depigmentation effect on zebrafish larvae (photographs) (zebrafish larvae [5]): reduced pigmentation in all regions except the eyes; pigmentation area of zebrafish larvae (CS analyzer) (zebrafish larvae [5]): decreased the pigmentation area compared to the control; % tyrosinase activity in zebrafish larvae, vs untreated control (100%) [6]: 57%; melanin content of zebrafish larvae, vs untreated control (100%) (zebrafish larvae [7]): 53%
Cc1ccc2nc(-c3ccc(O)cc3)oc2c1 [Compound 1, 4-(6-Methylbenzo[d]oxazol-2-yl)phenol]	> 200 µM	153 ± 14.3 µM	–	–
Oc1ccc(-c2nc3ccc(Cl)cc3o2)cc1 [Compound 6, 4-(6-Chlorobenzo[d]oxazol-2-yl)phenol]	> 200 µM	57.5 ± 8.78 µM	–	–
Cc1ccc2oc(-c3ccc(O)c(O)c3)nc2c1 [Compound 15, 4-(5-Methylbenzo[d]oxazol-2-yl)benzene-1,2-diol]	> 200 µM	80.3 ± 5.24 µM	83%	ROS scavenging activity [3]: strong ROS scavenging efficacy comparable to that of Trolox; DPPH radical scavenging activity [1]: 86%
COc1ccc(-c2nc3ccc(C)cc3o2)cc1O [Compound 4, 2-Methoxy-5-(6-methylbenzo[d]oxazol-2-yl)phenol]	> 200 µM	> 200 µM	–	–

Continued, in another order:

IC50 (mushroom tyrosinase; [8])	IC50 (mushroom tyrosinase; [9])	SMILES	ABTS+• scavenging activity (% inhibition) [2]	further results
> 200 µM	> 200 µM	COc1ccc(-c2nc3ccc(Cl)cc3o2)cc1O [Compound 9, 5-(6-Chlorobenzo[d]oxazol-2-yl)-2-methoxyphenol]	–	–
> 200 µM	> 200 µM	COc1ccc(-c2nc3ccc(C)cc3o2)c(OC)c1 [Compound 2, 2-(2,4-Dimethoxyphenyl)-6-methylbenzo[d]oxazole]	less than 5%	–
> 200 µM	> 200 µM	COc1ccc(-c2nc3ccc(Cl)cc3o2)c(OC)c1 [Compound 7, 6-Chloro-2-(2,4-dimethoxyphenyl)benzo[d]oxazole]	less than 5%	–
> 200 µM	59 ± 4.74 µM	Oc1ccc(-c2nc3ccc(Cl)cc3o2)cc1O [Compound 10, 4-(6-Chlorobenzo[d]oxazol-2-yl)benzene-1,2-diol]	81%	ROS scavenging activity [3]: strong to moderate ROS-scavenging activity; DPPH radical scavenging activity [1]: 86%
> 200 µM	146 ± 16.4 µM	COc1ccc(-c2nc3cc(C)ccc3o2)cc1O [Compound 14, 2-Methoxy-5-(5-methylbenzo[d]oxazol-2-yl)phenol]	–	–
> 200 µM	> 200 µM	COc1ccc(-c2nc3cc(C)ccc3o2)c(OC)c1 [Compound 12, 2-(2,4-Dimethoxyphenyl)-5-methylbenzo[d]oxazole]	less than 5%	–
> 200 µM	76.8 ± 3.84 µM	Cc1ccc2oc(-c3ccc(O)cc3)nc2c1 [Compound 11, 4-(5-Methylbenzo[d]oxazol-2-yl)phenol]	–	–
187 ± 30.3 µM	144 ± 3.1 µM	Cc1ccc2nc(-c3ccc(O)c(O)c3)oc2c1 [Compound 5, 4-(6-Methylbenzo[d]oxazol-2-yl)benzene-1,2-diol]	13%	ROS scavenging activity [3]: strong ROS scavenging efficacy; DPPH radical scavenging activity (in words) [1]: weak DPPH radical scavenging effect
